Source: patent US6451798B2, “Substituted alkyl piperazine derivatives” (CV Therapeutics, Inc., priority 2000, dated 2002)

Tests used:
[1] = Metabolic stability in human liver S-9 fractions; details: for Liver S-9 stability factor: % parent remaining after 30 min at 37 C divided by average % ranolazine remaining (57%), 10 μM, human liver S9 2 mg/mL
Protocol: As a measure of metabolic stability the compounds of this invention were incubated with human liver S-9 microsomal fractions. After, 30 minutes at 37 C, the amount of parent drug remaining was determined using LC-mass spec. The response factors for each compound was determined by establishing a standard curve and using an internal standard during the analysis of the samples. […] The compounds of this invention were assayed as described in the protocol below and the percentage of parent remaining was divided by the average % of ranolazine remaining (57%) affording a metabolic stability factor.
The following reagents were used; Potassium phosphate, 0.5M pH 74. (incubation buffer), kept at room temperature; 0.05M MgCl2 kept at 4° C.; β-Nicotinamide adenine dinucleotide phosphate, tetrasodium salt, reduced form (NADPH), 0.02M solution in water (˜16.6 mg/mL) from Sigma Lot #79H7044 prepared on day of use.
Incubation mixtures were prepared as follows:
Combine all components with incubation buffer and re-pipette 200 μL/tube+25 μL of the compound being tested along with 25 μL of S-9.
After 5 min of pre-incubation at 37° C., at 0 and 30 min after starting the reaction, a 50 μl aliquot of the incubation mixture was removed and added to 100 μL of 9:1 acetonitrile: methanol containing the internal standard.
The mixture was centrifuged and a 100 μL aliquot of the supernatant was diluted in 1 mL of solvent C (0.1% Formic Acid in water). Then samples were analyzed for change between the ratio of compound to internal standard at time zero and 30 minutes by LC/MS (injected 10 μL).
Samples were analyzed for the starting compounds and potential metabolite/s by LC/MS using an internal standard on a Micromass platform mass spec with a Keystone Inc. BDS ODS-C18 column with a flow rate of 0.25 ml/min.

[2] = system: mitochondrial fatty acid oxidation using palmitoyl carnitine as substrate; assay: Palmitoyl carnitine oxidation in isolated rat heart mitochondria; format: biochemical; details: 15 min at 30° C.
Protocol: Rat heart mitochodria were isolated by the method of Nedergard and Cannon (Methods in Enzymol. 55, 3, 1979).
The Palmitoyl carnitine oxidation was carried out in a total volume of 100 microliters containing the following agents: 110 mM KCl, 33 mM Tris buffer at pH 8, 2 mM KPi, 2 mM MgCl2, 0.1 mM EDTA, 0.1 mg/ml of defatted BSA, 0.5 mM malic acid, 3 mM ADP, 52 micrograms of mitochondrial protein, and 43 microM 1-C14 palmitoyl carnitine (Sp. Activity 60 mCi/mmole; 20 microCi/ml, using 5 microliters per assay). The compounds of this invention were added in a DMSO solution at the following concentrations: 100 microM, 30 microM, and 3 microM. In each assay, a DMSO control was used. After 15 min at 30° C., the enzymatic reaction was centrifuged (20,000 g for 1 min), and 70 microliters of the supernatant was added to an activated reverse phase silicic acid column (approximately 0.5 ml of silicic acid). The column was eluted with 2 ml of water, and 0.5 ml of the eluent was used for scintillation counting to determine the amount of C^14 trapped as C^14 bicarbonate ion. The data are presented as % activity of control.

**Q.** With `Cc1cccc(C)c1NC(=O)CN1CCN(CC(O)COC2CCCCC2)CC1` (stereo not drawn) [Compound 13] as the compound, how does the “Liver S-9 stability factor” value [1] read?
**A.** The value was 1.20.

**Q.** For `Cc1cccc(C)c1NC(=O)CN1CCN(CC(O)COCc2ccc(-c3ccccc3)cc2)CC1` (stereo not drawn) [Compound 23, N-(2,6-dimethylphenyl)-2-(4-{2-hydroxy-3-[(4-phenylphenyl)methoxy]propyl}piperazinyl)acetamide], which “Liver S-9 stability factor” value [1] is on record?
**A.** Its value is 0.05.

**Q.** What does the source list for `COc1ccccc1OCC(O)CN1CCN(CC(=O)Nc2c(C)cccc2C)CC1` (racemic) [Ranolazine, (±)-N-(2,6-dimethylphenyl)-4-[2-hydroxy-3-(2-methoxyphenoxy)propyl]-1-piperazineacetamide, reference compound]?
**A.** Mitochondrial fatty acid oxidation activity (% of control) ([2]; 30 μM compound): 98%; Mitochondrial fatty acid oxidation activity (% of control) ([2]; 100 μM compound): 63%; Liver S-9 stability factor [1]: 1.0; percentage of parent drug remaining at the 30 minute time point ([1]; human liver S-9, 30 minutes at 37 C, average of five experiments): 57%

**Q.** For `CCCCc1ccc(COCC(O)CN2CCN(CC(=O)Nc3c(C)cccc3C)CC2)cc1` (stereo not drawn) [Compound 24, N-(2,6-dimethylphenyl)-2-(4-{3-[(4-butylphenyl)methoxy]-2-hydroxypropyl}piperazinyl)acetamide], which “Liver S-9 stability factor” value [1] is on record?
**A.** Its value is 0.02.

**Q.** Which “Liver S-9 stability factor” value [1] does the source give for `Cc1cccc(C)c1NC(=O)CN1CCN(CC(O)COCc2ccc(C(F)(F)F)cc2)CC1` (stereo not drawn) [Compound 17, N-(2,6-dimethylphenyl)-2-[4-(2-hydroxy-3-{[4-(trifluoromethyl)phenyl]methoxy}propyl)piperazinyl]acetamide] here?
**A.** Its value is 1.0.

**Q.** With `Cc1ccc(COCC(O)CN2CCN(CC(=O)Nc3c(C)cccc3C)CC2)cc1` (stereo not drawn) [Compound 22, N-(2,6-dimethylphenyl)-2-(4-{2-hydroxy-3-[(4-methylphenyl)methoxy]propyl}piperazinyl)acetamide] as the compound, how does the “Liver S-9 stability factor” value [1] read?
**A.** Its value is 0.61.

**Q.** Which “Liver S-9 stability factor” value [1] does the source give for `Cc1cccc(C)c1NC(=O)CN1CCN(CC(O)COC2CCCC2)CC1` (stereo not drawn) [Compound 12] here?
**A.** Its value is 1.48.

**Q.** With `Cc1cccc(C)c1NC(=O)CN1CCN(CC(O)COCc2ccc3ccccc3c2)CC1` (stereo not drawn) [Compound 25, N-(2,6-dimethylphenyl)-2-{4-[2-hydroxy-3-(2-naphthylmethoxy)propyl]piperazinyl}acetamide] as the compound, how does the “Liver S-9 stability factor” value [1] read?
**A.** The value was 0.01.

**Q.** Which “Mitochondrial fatty acid oxidation activity (% of control)” value ([2]; 100 μM compound) does the source give for `Cc1cccc(C)c1NC(=O)CN1CCN(CC(O)COC(C)C)CC1` (stereo not drawn) [Compound 10] here?
**A.** Its value is 80%.
